In patent US9907737B2, “Composition comprising ferulic acid ethyl ester and aryl alkanol” (L'AIR LIQUIDE, SOCIETE ANONYME POUR L'ETUDE ET …, priority 2013, dated 2018):
Marks after values point to notes of the source that are not given here.

How the values were obtained:
S. aureus ATCC: 6538 = assay: Bacterial count reduction test (method 1), S. aureus; format: cell-based, Staphylococcus aureus; conditions: o/w cream, initial bacterial count 1 × 10^9
Experimental: (§1) Method 1: Bacterial Count Reduction Test
(§2) The aim of this bacterial count reduction test is to determine suitable preservatives and reaction times for samples injected in the laboratory.
(§3) Staphylococcus aureus, Escherichia coli or Pseudomonas aeruginosa, Candida albicans, Aspergillus brasiliensis
(§4) From a 24-hour CS-angular agar culture (I subculture) of Staphylococcus aureus/Escherichia coli 24-hour CSL-cultures (II subculture) are created. The incubation is carried out at 37° C. The titer of the bacterial suspension is about 10^9 CFU/ml.
(§5) The titres of the respectively produced test organism suspensions are determined by means of a dilution series in physiological NaCl and recorded.
(§6) The samples are displaced with different concentrations of suitable preservatives. For each test bacterium a dilution series is required. The samples are injected individually with the respective test organism suspension and stirred well:
(§7) 25 g samples=0.1 ml bacterial suspension
(§8) 50 g samples=0.2 ml bacterial suspension.
(§9) After the indicated reaction times the samples are firstly stirred homogenously with a sterile glass rod and then spread onto CSA or SA agar. The bacteria samples are spread onto CSA and incubated for 48 hours at 37° C. The mould and yeast samples are spread onto SA agar and incubated for 48 hours at 37° C. (Candida albicans) and at 25° C. (Aspergillus brasiliensis).

E. coli ATCC: 11229 = assay: Bacterial count reduction test (method 1), E. coli; format: cell-based, Escherichia coli; conditions: o/w cream, initial bacterial count 1.3 × 10^9
Experimental: as §1, §2, §3, §4, §5, §6, §7, §8, §9

C. albicans ATCC: 10231 = assay: Bacterial count reduction test (method 1), C. albicans; format: cell-based, Candida albicans
Experimental: as §1, §2, §3
A 4 day old Candida albicans culture on SA-agar (II subculture) is washed with 5 ml physiological NaCl and adjusted according to a barium sulphate standard (cf. DVG Guidelines). The titer of the Candida albicans suspension is 10^8 CFU/ml.
as §5, §6, §7, §8, §9

[1] = tested on: A. brasiliensis ATCC: 16404; assay: Bacterial count reduction test (method 1), A. brasiliensis; format: cell-based, Aspergillus brasiliensis
Experimental: as §1, §2, §3
A 7 to 14 days old Aspergillus brasiliensis culture on SA agar (25° C.±1° C.) is washed with 5 ml physiological NaCl, filtered by a glass funnel with glass wool and filled with physiological NaCl to 100 ml. The titre of the Aspergillus brasiliensis suspension is about 10^7 CFU/ml.
as §5, §6, §7, §8, §9

[2] = tested on: Staphylococcus aureus, Escherichia coli or Pseudomonas aeruginosa, Candida albicans, Aspergillus brasiliensis; assay: Bacterial count reduction test (method 1), summary in words over the test organisms; format: cell-based; conditions: Example 3, Table 4; o/w-Lotion; concentration of 2%
Experimental: as §1, §2, §3, §6, §9

[3] = o/w cream, initial bacterial count 4.1 × 10^8
[4] = o/w-Lotion, initial bacterial count 5.4 × 10^8
[5] = o/w cream, initial bacterial count 1.5 × 10^7
[6] = o/w-Lotion, initial bacterial count 7.7 × 10^7

SMILES: COc1cc(/C=C/C(=O)O)ccc1O [0.1% ferulic acid, ferulic acid]
- Growth of S. aureus ATCC: 6538 after 24 hours (S. aureus ATCC: 6538; 24 h): R (Surface covered About 10^6)
- Growth of S. aureus ATCC: 6538 after 72 hours (S. aureus ATCC: 6538; 72 h): ++++ (Massive growth About 10^5)
- Growth of S. aureus ATCC: 6538 after 168 hours (S. aureus ATCC: 6538; 168 h): ++++ (Massive growth About 10^5)
- Growth of S. aureus ATCC: 6538 after 336 hours (S. aureus ATCC: 6538; 336 h): ++++ (Massive growth About 10^5)
- Growth of E. coli ATCC: 11229 after 24 hours (E. coli ATCC: 11229; 24 h): ++++ (Massive growth About 10^5)
- Growth of E. coli ATCC: 11229 after 72 hours (E. coli ATCC: 11229; 72 h): R (Surface covered About 10^6)
- Growth of E. coli ATCC: 11229 after 168 hours (E. coli ATCC: 11229; 168 h): R (Surface covered About 10^6)
- Growth of E. coli ATCC: 11229 after 336 hours (E. coli ATCC: 11229; 336 h): R (Surface covered About 10^6)
- Growth of C. albicans ATCC: 10231 after 24 hours (C. albicans ATCC: 10231; [3]): R (Surface covered About 10^6)
- Growth of C. albicans ATCC: 10231 after 72 hours (C. albicans ATCC: 10231; [3]): R (Surface covered About 10^6)
- Growth of C. albicans ATCC: 10231 after 168 hours (C. albicans ATCC: 10231; [3]): ++++ (Massive growth About 10^5)
- Growth of C. albicans ATCC: 10231 after 336 hours (C. albicans ATCC: 10231; [3]): ++++ (Massive growth About 10^5)
- Growth of C. albicans ATCC: 10231 after 24 hours (C. albicans ATCC: 10231; [4]): R (Surface covered About 10^6)
- Growth of C. albicans ATCC: 10231 after 72 hours (C. albicans ATCC: 10231; [4]): R (Surface covered About 10^6)
- Growth of C. albicans ATCC: 10231 after 168 hours (C. albicans ATCC: 10231; [4]): ++++ (Massive growth About 10^5)
- Growth of C. albicans ATCC: 10231 after 336 hours (C. albicans ATCC: 10231; [4]): ++++ (Massive growth About 10^5)
- Growth of A. brasiliensis ATCC: 16404 after 24 hours [1, 5]: ++++ (Massive growth About 10^5)
- Growth of A. brasiliensis ATCC: 16404 after 72 hours [1, 5]: ++++ (Massive growth About 10^5)
- Growth of A. brasiliensis ATCC: 16404 after 168 hours [1, 5]: ++++ (Massive growth About 10^5)
- Growth of A. brasiliensis ATCC: 16404 after 336 hours [1, 5]: ++++ (Massive growth About 10^5)
- Growth of A. brasiliensis ATCC: 16404 after 24 hours [1, 6]: ++++ (Massive growth About 10^5)
- Growth of A. brasiliensis ATCC: 16404 after 72 hours [1, 6]: ++++ (Massive growth About 10^5)
- Growth of A. brasiliensis ATCC: 16404 after 168 hours [1, 6]: ++++ (Massive growth About 10^5)
- Growth of A. brasiliensis ATCC: 16404 after 336 hours [1, 6]: ++++ (Massive growth About 10^5)
- Effectiveness in bacterial count reduction test, in words [2]: inherent effectiveness
